Test system: Monocotyledonous and dicotyledonous weed seeds and main crop seeds
Experiment: Post-emergence test experiment, other weeds and crops (Table 4, 1000 g a.i./ha)
Type: in vivo
Conditions: 3 weeks in greenhouse, fresh weight inhibition
Method: The above described growth inhibition rate is fresh weight inhibition rate.
Post-emergence test experiment: Monocotyledonous and dicotyledonous weed seeds and main crop seeds (i. e. wheat, corn, rice, soybean, cotton, oilseed, millet and sorghum.) were put into a plastic pot loaded with soil. Then covered with 0.5-2 cm soil, the seeds were allowed to grow in good greenhouse environment. The test plants were treated at 2-3 leaf stage 2 weeks after sowing. The test compounds of the invention were dissolved with acetone respectively, then added with tween-80, and using 1.5 liters per hectare of an emulsible concentrate of methyl oleate as a synergist, and diluted by certain amount of water to certain concentration. The solution was sprayed to the plants with a sprayer.

Row | Compound | Activity level (growth inhibition rate), Abutilon theophrasti Medic. | Activity level (growth inhibition rate), Galium aparine | Activity level (growth inhibition rate), Monochoria Vaginalis
1 | Nc1c(Cl)c(F)nc(O[C@@H](C(=O)[O-])c2ccccc2)c1Cl.[Na+] [Compound 2-1] | 5 (Level 5: the growth inhibition rate is greater than 85%) | 5 (Level 5: the growth inhibition rate is greater than 85%) | 5 (Level 5: the growth inhibition rate is greater than 85%)
2 | CCC(Oc1nc(F)c(Cl)c(N)c1Cl)C(=O)[O-].C[N+](C)(C)Cc1ccccc1 (stereo not drawn) [Compound 2-5] | 5 (Level 5: the growth inhibition rate is greater than 85%) | 5 (Level 5: the growth inhibition rate is greater than 85%) | 5 (Level 5: the growth inhibition rate is greater than 85%)
3 | C[N+](C)(C)CCO.Nc1c(Cl)c(F)nc(O[C@@H](C(=O)[O-])c2ccccc2)c1Cl [Compound 2-6] | 5 (Level 5: the growth inhibition rate is greater than 85%) | 5 (Level 5: the growth inhibition rate is greater than 85%) | 5 (Level 5: the growth inhibition rate is greater than 85%)
4 | CC(C)N.Nc1c(Cl)c(F)nc(O[C@@H](C(=O)O)c2ccccc2)c1Cl [Compound 2-8] | 5 (Level 5: the growth inhibition rate is greater than 85%) | 5 (Level 5: the growth inhibition rate is greater than 85%) | 5 (Level 5: the growth inhibition rate is greater than 85%)
5 | NCc1ccccc1 [Compound 2-9, benzylamine] | 5 (Level 5: the growth inhibition rate is greater than 85%) | 5 (Level 5: the growth inhibition rate is greater than 85%) | 5 (Level 5: the growth inhibition rate is greater than 85%)
6 | CCC(Oc1nc(F)c(Cl)c(N)c1Cl)C(=O)O.NCCO (stereo not drawn) [Compound 2-10] | 5 (Level 5: the growth inhibition rate is greater than 85%) | 5 (Level 5: the growth inhibition rate is greater than 85%) | 5 (Level 5: the growth inhibition rate is greater than 85%)
7 | NCCOCCO.Nc1c(Cl)c(F)nc(O[C@@H](C(=O)O)c2ccccc2)c1Cl [Compound 2-11] | 5 (Level 5: the growth inhibition rate is greater than 85%) | 5 (Level 5: the growth inhibition rate is greater than 85%) | 5 (Level 5: the growth inhibition rate is greater than 85%)
8 | C=CCNCC=C.CCC(Oc1nc(F)c(Cl)c(N)c1Cl)C(=O)S (stereo not drawn) [Compound 2-12] | 5 (Level 5: the growth inhibition rate is greater than 85%) | 5 (Level 5: the growth inhibition rate is greater than 85%) | 5 (Level 5: the growth inhibition rate is greater than 85%)
9 | NC1CCCCCCCCCCC1 [Compound 2-13, cyclododecylamine] | 5 (Level 5: the growth inhibition rate is greater than 85%) | 5 (Level 5: the growth inhibition rate is greater than 85%) | 5 (Level 5: the growth inhibition rate is greater than 85%)
10 | NCCNCCN.Nc1c(Cl)c(F)nc(OC(C(=O)O)c2ccccc2)c1Cl (stereo not drawn) [Compound 2-15] | 5 (Level 5: the growth inhibition rate is greater than 85%) | 5 (Level 5: the growth inhibition rate is greater than 85%) | 5 (Level 5: the growth inhibition rate is greater than 85%)
11 | CN(C)CCCN.Nc1c(Cl)c(F)nc(OC(C(=O)O)c2ccccc2)c1Cl (stereo not drawn) [Compound 2-16] | 5 (Level 5: the growth inhibition rate is greater than 85%) | 5 (Level 5: the growth inhibition rate is greater than 85%) | 5 (Level 5: the growth inhibition rate is greater than 85%)
12 | NCCNCCNCCN [Compound 2-18, triethylenetetramine] | 5 (Level 5: the growth inhibition rate is greater than 85%) | 5 (Level 5: the growth inhibition rate is greater than 85%) | 5 (Level 5: the growth inhibition rate is greater than 85%)
13 | CN(CCCN)CCCN [Compound 2-19, N,N-bis[aminopropyl]methylamine] | 5 (Level 5: the growth inhibition rate is greater than 85%) | 5 (Level 5: the growth inhibition rate is greater than 85%) | 5 (Level 5: the growth inhibition rate is greater than 85%)
14 | CCCCOCCN [Compound 2-21, 2-butoxyethylamine] | 5 (Level 5: the growth inhibition rate is greater than 85%) | 5 (Level 5: the growth inhibition rate is greater than 85%) | 5 (Level 5: the growth inhibition rate is greater than 85%)
15 | NC(CO)(CO)CO [Compound 2-23, tri(methylol) aminomethane] | 5 (Level 5: the growth inhibition rate is greater than 85%) | 5 (Level 5: the growth inhibition rate is greater than 85%) | 5 (Level 5: the growth inhibition rate is greater than 85%)
16 | CCC(Oc1nc(F)c(Cl)c(N)c1Cl)C(=O)S.NCCCN1CCOCC1 (stereo not drawn) [Compound 2-25] | 5 (Level 5: the growth inhibition rate is greater than 85%) | 5 (Level 5: the growth inhibition rate is greater than 85%) | 5 (Level 5: the growth inhibition rate is greater than 85%)
17 | CC[C@@H](Oc1nc(F)c(Cl)c(N)c1Cl)C(=O)SC [Compound 2-33] | 5 (Level 5: the growth inhibition rate is greater than 85%) | 5 (Level 5: the growth inhibition rate is greater than 85%) | 5 (Level 5: the growth inhibition rate is greater than 85%)
18 | CCC(Oc1nc(F)c(Cl)c(N)c1Cl)C(=O)OC (stereo not drawn) [Compound 2-34] | 5 (Level 5: the growth inhibition rate is greater than 85%) | 5 (Level 5: the growth inhibition rate is greater than 85%) | 5 (Level 5: the growth inhibition rate is greater than 85%)
19 | COC(=O)C(Oc1nc(F)c(Cl)c(N)c1Cl)C(C)C (stereo not drawn) [Compound 2-35] | 5 (Level 5: the growth inhibition rate is greater than 85%) | 5 (Level 5: the growth inhibition rate is greater than 85%) | 5 (Level 5: the growth inhibition rate is greater than 85%)
20 | CSC(=O)C(Oc1nc(F)c(Cl)c(N)c1Cl)C(C)C (stereo not drawn) [Compound 2-36] | 5 (Level 5: the growth inhibition rate is greater than 85%) | 5 (Level 5: the growth inhibition rate is greater than 85%) | 5 (Level 5: the growth inhibition rate is greater than 85%)
21 | CCCC(Oc1nc(F)c(Cl)c(N)c1Cl)C(=O)OC (stereo not drawn) [Compound 2-37] | 5 (Level 5: the growth inhibition rate is greater than 85%) | 5 (Level 5: the growth inhibition rate is greater than 85%) | 5 (Level 5: the growth inhibition rate is greater than 85%)
22 | COC(=O)C(Oc1nc(F)c(Cl)c(N)c1Cl)C1CC1 (stereo not drawn) [Compound 2-38] | 5 (Level 5: the growth inhibition rate is greater than 85%) | 5 (Level 5: the growth inhibition rate is greater than 85%) | 5 (Level 5: the growth inhibition rate is greater than 85%)
23 | COC(=O)C(Oc1nc(F)c(Cl)c(N)c1Cl)C(F)(F)F (stereo not drawn) [Compound 2-39] | 5 (Level 5: the growth inhibition rate is greater than 85%) | 5 (Level 5: the growth inhibition rate is greater than 85%) | 5 (Level 5: the growth inhibition rate is greater than 85%)
24 | COC(=O)C(CC(F)(F)F)Oc1nc(F)c(Cl)c(N)c1Cl (stereo not drawn) [Compound 2-40] | 5 (Level 5: the growth inhibition rate is greater than 85%) | 5 (Level 5: the growth inhibition rate is greater than 85%) | 5 (Level 5: the growth inhibition rate is greater than 85%)
25 | COC(=O)C(CCl)Oc1nc(F)c(Cl)c(N)c1Cl (stereo not drawn) [Compound 2-41] | 5 (Level 5: the growth inhibition rate is greater than 85%) | 5 (Level 5: the growth inhibition rate is greater than 85%) | 5 (Level 5: the growth inhibition rate is greater than 85%)
26 | COC(=O)C(CCCl)Oc1nc(F)c(Cl)c(N)c1Cl (stereo not drawn) [Compound 2-42] | 5 (Level 5: the growth inhibition rate is greater than 85%) | 5 (Level 5: the growth inhibition rate is greater than 85%) | 5 (Level 5: the growth inhibition rate is greater than 85%)

From patent US12304890B2, “R-type pyridyloxycarboxylic acid, salt and ester derivative thereof, and preparation method therefor, and herbicidal composition and application thereof” (Qingdao Kingagroot Chemical Compound Co., Ltd., priority 2018, dated 2025)
